We go through 38 compounds from ChEMBL document CHEMBL4028802, “DILIrank: the largest reference drug list ranked by the risk for developing drug-induced liver injury in humans” (Drug Discov Today, 2016).

Data set [1] is filed under the species Homo sapiens. Description: Liver toxicity in human assessed as induction of drug-induced liver injury by measuring severity class index.
For data set [2], the species on record is Homo sapiens. In words: Liver toxicity in human assessed as induction of drug-induced liver injury by measuring verified drug-induced liver injury concern status.
For DILI severity class in this document: key of the grades not given here.

For the compound `C=C1C[C@@H]2[C@H](CC[C@]3(C)C(=O)CC[C@@H]23)[C@@]2(C)C=CC(=O)C=C12` [EXEMESTANE], the DILI_severity_class in the data set filed under Homo sapiens [1] is listed as 4. For the same compound, the DILI_Concern result in the data set listed under Homo sapiens [2] was “Most-Dili-Concern”.

On to `O=C(c1cc(O)c(O)c(O)c1)c1ccc(O)c(O)c1O` [EXIFONE], for which the DILI_severity_class in the data set listed under Homo sapiens [1] is on record as 8. In addition, the DILI_Concern entry in the data set filed under Homo sapiens [2] is listed as “Most-Dili-Concern”.

For `O=C1[C@H](CC[C@H](O)c2ccc(F)cc2)[C@@H](c2ccc(O)cc2)N1c1ccc(F)cc1` [EZETIMIBE], in the data set listed under Homo sapiens [1], the DILI_severity_class stood at 3. Also, the DILI_Concern entry in the data set filed under Homo sapiens [2] is reported as “Less-Dili-Concern”.

As for `CN1CCC(Nc2ncc3ncnc(Nc4ccc(F)c(Cl)c4)c3n2)CC1` [FALNIDAMOL], the DILI_severity_class in the data set listed under Homo sapiens [1] is on record as 8. Moreover, the DILI_Concern entry in the data set listed under Homo sapiens [2] is given as “Most-Dili-Concern”.

With `CC(=O)OCC(CCn1cnc2cnc(N)nc21)COC(C)=O` [FAMCICLOVIR], the DILI_severity_class in the data set filed under Homo sapiens [1] was found to be 3. In addition, in the data set listed under Homo sapiens [2], the DILI_Concern result was “Ambiguous-Dili-Concern”.

Take `NC(N)=Nc1nc(CSCCC(N)=NS(N)(=O)=O)cs1` [FAMOTIDINE]: the DILI_severity_class in the data set listed under Homo sapiens [1] amounted to 3. Moreover, in the data set listed under Homo sapiens [2], the DILI_Concern entry is “Less-Dili-Concern”.

On to `Cc1nc(-c2ccc(OCC(C)C)c(C#N)c2)sc1C(=O)O` [FEBUXOSTAT], for which the DILI_severity_class in the data set filed under Homo sapiens [1] is 8. For the same compound, the DILI_Concern result in the data set filed under Homo sapiens [2] is recorded as “Most-Dili-Concern”.

Turning to `NC(=O)OCC(COC(N)=O)c1ccccc1` [FELBAMATE], the DILI_severity_class in the data set listed under Homo sapiens [1] is 7. In the data set listed under Homo sapiens [2], the DILI_Concern result was “Most-Dili-Concern”.

In the case of `CCOC(=O)C1=C(C)NC(C)=C(C(=O)OC)C1c1cccc(Cl)c1Cl` (stereo unspecified) [FELODIPINE], the DILI_severity_class in the data set filed under Homo sapiens [1] came out at 3. In addition, the DILI_Concern entry in the data set filed under Homo sapiens [2] is recorded as “Less-Dili-Concern”.

On to `O=C(O)Cc1csc(-c2ccc(Cl)cc2)n1` [FENCLOZIC ACID], for which the DILI_severity_class in the data set filed under Homo sapiens [1] was determined as 8. The DILI_Concern entry in the data set filed under Homo sapiens [2] was “Most-Dili-Concern”.

`CC(C)OC(=O)C(C)(C)Oc1ccc(C(=O)c2ccc(Cl)cc2)cc1` [FENOFIBRATE]: in the data set filed under Homo sapiens [1], the DILI_severity_class was found to be 3. In addition, in the data set listed under Homo sapiens [2], the DILI_Concern entry is recorded as “Less-Dili-Concern”.

On to `CC(C)(Oc1ccc(C(=O)c2ccc(Cl)cc2)cc1)C(=O)O` [FENOFIBRIC ACID], for which, in the data set listed under Homo sapiens [1], the DILI_severity_class came out at 2. Besides, the DILI_Concern entry in the data set filed under Homo sapiens [2] is reported as “Ambiguous-Dili-Concern”.

`Oc1ccc(C2CNCCc3c2cc(O)c(O)c3Cl)cc1` (stereo unspecified) [FENOLDOPAM]: the DILI_severity_class in the data set filed under Homo sapiens [1] stood at 0. For the same compound, the DILI_Concern entry in the data set filed under Homo sapiens [2] was “No-Dili-Concern”.

On to `CC(C(=O)O)c1cccc(Oc2ccccc2)c1` (stereo unspecified) [FENOPROFEN], for which, in the data set listed under Homo sapiens [1], the DILI_severity_class was determined as 8. In addition, the DILI_Concern entry in the data set listed under Homo sapiens [2] is reported as “Most-Dili-Concern”.

In the case of `CC(C)C(=O)Oc1ccc(CO)cc1[C@H](CCN(C(C)C)C(C)C)c1ccccc1` [FESOTERODINE], the DILI_severity_class in the data set filed under Homo sapiens [1] was found to be 0. Besides, the DILI_Concern entry in the data set filed under Homo sapiens [2] is given as “No-Dili-Concern”.

In the case of `CC(C)(C(=O)O)c1ccc(C(O)CCCN2CCC(C(O)(c3ccccc3)c3ccccc3)CC2)cc1` (stereo unspecified) [FEXOFENADINE], the DILI_severity_class in the data set listed under Homo sapiens [1] was 0. The DILI_Concern result in the data set filed under Homo sapiens [2] is “No-Dili-Concern”.

Turning to `O=c1[nH]c(=O)n([C@@H]2O[C@H](CO)[C@@H](O)[C@@H]2F)cc1I` [FIALURIDINE], in the data set filed under Homo sapiens [1], the DILI_severity_class was found to be 8. Moreover, the DILI_Concern entry in the data set listed under Homo sapiens [2] is “Most-Dili-Concern”.

In the case of `COc1cccc2c1[C@@H]1CN(CCCCn3c(=O)[nH]c4c(sc5ncc(-c6ccccc6)nc54)c3=O)C[C@@H]1CO2` [FIDUXOSIN], in the data set filed under Homo sapiens [1], the DILI_severity_class turned out to be 8. Further, the DILI_Concern result in the data set filed under Homo sapiens [2] was “Most-Dili-Concern”.

With `CC(C)(C)NC(=O)[C@H]1CC[C@H]2[C@@H]3CC[C@H]4NC(=O)C=C[C@]4(C)[C@H]3CC[C@]12C` [FINASTERIDE], the DILI_severity_class in the data set filed under Homo sapiens [1] came to 0. Also, in the data set listed under Homo sapiens [2], the DILI_Concern entry is “Less-Dili-Concern”.

In the case of `O=C(COc1ccc(Cl)cc1)N1CCN(Cc2ccc3c(c2)OCO3)CC1` [FIPEXIDE], the DILI_severity_class in the data set filed under Homo sapiens [1] was found to be 8. The DILI_Concern entry in the data set listed under Homo sapiens [2] is “Most-Dili-Concern”.

Turning to `Cc1c(-c2ccccc2)oc2c(C(=O)OCCN3CCCCC3)cccc2c1=O` [FLAVOXATE], the DILI_severity_class in the data set filed under Homo sapiens [1] is recorded as 0. Besides, the DILI_Concern result in the data set listed under Homo sapiens [2] is listed as “No-Dili-Concern”.

For `O=C(NCC1CCCCN1)c1cc(OCC(F)(F)F)ccc1OCC(F)(F)F` (stereo unspecified) [FLECAINIDE], the DILI_severity_class in the data set filed under Homo sapiens [1] stood at 7. In addition, the DILI_Concern entry in the data set listed under Homo sapiens [2] is reported as “Less-Dili-Concern”.

As to `OC(Cn1cncn1)(Cn1cncn1)c1ccc(F)cc1F` [FLUCONAZOLE], in the data set filed under Homo sapiens [1], the DILI_severity_class is 8. The DILI_Concern result in the data set listed under Homo sapiens [2] was “Most-Dili-Concern”.

On to `Nc1nc(=O)[nH]cc1F` [FLUCYTOSINE], for which the DILI_severity_class in the data set listed under Homo sapiens [1] is recorded as 3. Further, the DILI_Concern result in the data set listed under Homo sapiens [2] was “Ambiguous-Dili-Concern”.

As for `Nc1nc(F)nc2c1ncn2[C@@H]1O[C@H](COP(=O)(O)O)[C@@H](O)[C@@H]1O` [FLUDARABINE PHOSPHATE], in the data set filed under Homo sapiens [1], the DILI_severity_class is recorded as 0. Also, the DILI_Concern result in the data set listed under Homo sapiens [2] is given as “No-Dili-Concern”.

For the compound `C[C@]12CCC(=O)C=C1CC[C@H]1[C@@H]3CC[C@](O)(C(=O)CO)[C@@]3(C)C[C@H](O)[C@@]12F` [FLUDROCORTISONE], in the data set listed under Homo sapiens [1], the DILI_severity_class is 0. Besides, the DILI_Concern entry in the data set filed under Homo sapiens [2] is “No-Dili-Concern”.

On to `CCOC(=O)c1ncn2c1CN(C)C(=O)c1cc(F)ccc1-2` [FLUMAZENIL], for which the DILI_severity_class in the data set filed under Homo sapiens [1] worked out at 0. Moreover, in the data set filed under Homo sapiens [2], the DILI_Concern entry is reported as “No-Dili-Concern”.

Consider `O=c1[nH]cc(F)c(=O)[nH]1` [FLUOROURACIL], for which the DILI_severity_class in the data set filed under Homo sapiens [1] turned out to be 0. Moreover, the DILI_Concern entry in the data set listed under Homo sapiens [2] is “Less-Dili-Concern”.

For `CNCCC(Oc1ccc(C(F)(F)F)cc1)c1ccccc1` (stereo unspecified) [FLUOXETINE], in the data set listed under Homo sapiens [1], the DILI_severity_class was determined as 3. Further, the DILI_Concern entry in the data set listed under Homo sapiens [2] is reported as “Less-Dili-Concern”.

Regarding `C[C@]1(O)CC[C@H]2[C@@H]3CCC4=CC(=O)CC[C@]4(C)[C@@]3(F)[C@@H](O)C[C@@]21C` [FLUOXYMESTERONE], the DILI_severity_class in the data set listed under Homo sapiens [1] is listed as 8. Besides, the DILI_Concern result in the data set filed under Homo sapiens [2] was “Ambiguous-Dili-Concern”.

As for `OCCN1CCN(CCCN2c3ccccc3Sc3ccc(C(F)(F)F)cc32)CC1` [FLUPHENAZINE], the DILI_severity_class in the data set listed under Homo sapiens [1] turned out to be 3. In addition, in the data set listed under Homo sapiens [2], the DILI_Concern entry is reported as “Ambiguous-Dili-Concern”.

For `CCN(CC)CCN1C(=O)CN=C(c2ccccc2F)c2cc(Cl)ccc21` [FLURAZEPAM], the DILI_severity_class in the data set listed under Homo sapiens [1] was 4. Also, in the data set listed under Homo sapiens [2], the DILI_Concern entry is “Less-Dili-Concern”.

Turning to `CC(C(=O)O)c1ccc(-c2ccccc2)c(F)c1` (stereo unspecified) [FLURBIPROFEN], the DILI_severity_class in the data set filed under Homo sapiens [1] turned out to be 3. Also, the DILI_Concern entry in the data set listed under Homo sapiens [2] is “Ambiguous-Dili-Concern”.

As for `CC(C)C(=O)Nc1ccc([N+](=O)[O-])c(C(F)(F)F)c1` [FLUTAMIDE], the DILI_severity_class in the data set listed under Homo sapiens [1] is 8. Further, the DILI_Concern result in the data set filed under Homo sapiens [2] is “Most-Dili-Concern”.

With `CC(C)n1c(/C=C/C(O)CC(O)CC(=O)O)c(-c2ccc(F)cc2)c2ccccc21` (stereo unspecified) [FLUVASTATIN], the DILI_severity_class in the data set filed under Homo sapiens [1] amounted to 3. The DILI_Concern result in the data set filed under Homo sapiens [2] is “Less-Dili-Concern”.

As to `COCCCC/C(=N\OCCN)c1ccc(C(F)(F)F)cc1` [FLUVOXAMINE], the DILI_severity_class in the data set filed under Homo sapiens [1] stood at 3. Moreover, the DILI_Concern result in the data set listed under Homo sapiens [2] is recorded as “Ambiguous-Dili-Concern”.

Regarding `Nc1nc2ncc(CNc3ccc(C(=O)N[C@@H](CCC(=O)O)C(=O)O)cc3)nc2c(=O)[nH]1` [FOLIC ACID], in the data set filed under Homo sapiens [1], the DILI_severity_class is 0. Also, the DILI_Concern result in the data set listed under Homo sapiens [2] was “No-Dili-Concern”.

Take `Cc1cn[nH]c1` [FOMEPIZOLE]: the DILI_severity_class in the data set filed under Homo sapiens [1] is reported as 3. Also, the DILI_Concern entry in the data set filed under Homo sapiens [2] is reported as “Ambiguous-Dili-Concern”.
